Patent US6376497B1, “Antifungal azole derivatives having a fluorinated vinyl group and process for preparing same” (Korea Research Institute of Chemical Technology, priority 1999, dated 2002)

How the values were obtained:
Assay in all cases: In vitro antifungal activity, microbroth dilution MIC
Type in all cases: cell-based
Conditions in all cases: RPMI-1640, 35° C., 4 to 48 hours, no growth observed
[1] = test system: Aspergillus furnigatus B. 19119
Summary of the method: (§1)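 Broth microdilution adapted from NCCLS M27, in RPMI-1640 with 0.165 M MOPS, pH 7.0. Yeast or mould inoculum at 2×10^3 CFU/ml was mixed 1:1 with DMSO-derived compound solutions (200 to 0.10 μg/ml before mixing) and incubated at 35 °C for 4 to 48 h. MIC was the concentration showing no growth.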

[2] = test system: Aspergillus niger A. 16404
Summary of the method: as §1

[3] = test system: Candida albicans A. 10231
Summary of the method: as §1

Candida albicans C1-2 = test system: Candida albicans C1-2
Summary of the method: as §1

[4] = test system: Candida albicans IFO. 1385
Summary of the method: as §1

Candida krusei K. 11655 = test system: Candida krusei K. 11655
Summary of the method: as §1

[5] = test system: Candida parapsitosis A. 7330
Summary of the method: as §1

[6] = test system: Candida pseudotropicalis K. 11658
Summary of the method: as §1

[7] = test system: Candida tropicalis A. 13803
Summary of the method: as §1

[8] = test system: Cryptococcus neoformans A. 34144
Summary of the method: as §1

[9] = test system: Cryptococcus neoformans B. 42419
Summary of the method: as §1

[10] = test system: Cryptococcus neoformans IFM. 40092
Summary of the method: as §1

[11] = test system: Torulopsis glabrata B. 16205
Summary of the method: as §1

[12] = test system: Trichophyton mentagrophytes A. 9129
Summary of the method: as §1

[13] = test system: Trichophyton mentagrophytes B. 32663
Summary of the method: as §1

Row | SMILES | Minimal inhibitory concentration(MIC), A furnigatus B. 19119 [1] | Minimal inhibitory concentration(MIC), A. niger A. 16404 [2] | Minimal inhibitory concentration(MIC), C. albicans A. 10231 [3] | Minimal inhibitory concentration(MIC), C. albicans C1-2 (Candida albicans C1-2) | Minimal inhibitory concentration(MIC), C. albicans IFO. 1385 [4] | Minimal inhibitory concentration(MIC), C. krusei K. 11655 (Candida krusei K. 11655) | Minimal inhibitory concentration(MIC), C. parapsitosis A. 7330 [5] | Minimal inhibitory concentration(MIC), C. pseudotropicalis K. 11658 [6] | Minimal inhibitory concentration(MIC), C. tropicalis A. 13803 [7] | Minimal inhibitory concentration(MIC), Cry. neoformans A. 34144 [8] | Minimal inhibitory concentration(MIC), Cry. neoformans B. 42419 [9] | Minimal inhibitory concentration(MIC), Cry. neoformans IFM. 40092 [10] | Minimal inhibitory concentration(MIC), T. glabrata B. 16205 [11] | Minimal inhibitory concentration(MIC), T. mentagrophytes A. 9129 [12] | Minimal inhibitory concentration(MIC), T. mentagrophytes B. 32663 [13]
1 | FC(=C(c1ccccc1)C(F)(F)F)N1CCN(c2ccc(OCC3COC(Cn4ccnc4)(c4ccc(Cl)cc4Cl)O3)cc2)CC1 (mixture of isomers) [Ex. 124] | >100 µg/mL | >100 µg/mL | 50.0 µg/mL | 25.0 µg/mL | 1.56 µg/mL | >100 µg/mL | >100 µg/mL | >100 µg/mL | >100 µg/mL | 1.56 µg/mL | 1.56 µg/mL | 0.39 µg/mL | 50.0 µg/mL | 6.25 µg/mL | 3.13 µg/mL
2 | CCc1ccc(C(=C(F)N2CCN(c3ccc(OCC4COC(Cn5ccnc5)(c5ccc(Cl)cc5Cl)O4)cc3)CC2)C(F)(F)F)cc1 (mixture of isomers) [Ex. 127] | >100 µg/mL | >100 µg/mL | >100 µg/mL | >100 µg/mL | 3.13 µg/mL | 3.13 µg/mL | 3.13 µg/mL | 1.56 µg/mL | >100 µg/mL | 0.78 µg/mL | 0.78 µg/mL | 0.39 µg/mL | >100 µg/mL | 12.5 µg/mL | 3.13 µg/mL
3 | CC(C)(C)c1ccc(C(=C(F)N2CCN(c3ccc(OCC4COC(Cn5ccnc5)(c5ccc(Cl)cc5Cl)O4)cc3)CC2)C(F)(F)F)cc1 (mixture of isomers) [Ex. 128] | >100 µg/mL | >100 µg/mL | >100 µg/mL | >100 µg/mL | 1.56 µg/mL | 3.13 µg/mL | 3.13 µg/mL | 1.56 µg/mL | >100 µg/mL | 0.78 µg/mL | 0.78 µg/mL | ≦0.10 μg/ml | >100 µg/mL | 12.5 µg/mL | 6.25 µg/mL
4 | FC(=C(c1ccc(C(F)(F)F)cc1)C(F)(F)F)N1CCN(c2ccc(OCC3COC(Cn4ccnc4)(c4ccc(Cl)cc4Cl)O3)cc2)CC1 (mixture of isomers) [Ex. 130] | >100 µg/mL | >100 µg/mL | >100 µg/mL | >100 µg/mL | 3.13 µg/mL | 1.56 µg/mL | 1.56 µg/mL | 1.56 µg/mL | >100 µg/mL | 0.78 µg/mL | 0.78 µg/mL | 0.20 µg/mL | >100 µg/mL | 25.0 µg/mL | 12.5 µg/mL

Now from value to compound:

Row | Minimal inhibitory concentration(MIC), A furnigatus B. 19119 [1] | Minimal inhibitory concentration(MIC), A. niger A. 16404 [2] | Minimal inhibitory concentration(MIC), C. albicans A. 10231 [3] | Minimal inhibitory concentration(MIC), C. albicans C1-2 (Candida albicans C1-2) | Minimal inhibitory concentration(MIC), C. albicans IFO. 1385 [4] | Minimal inhibitory concentration(MIC), C. krusei K. 11655 (Candida krusei K. 11655) | Minimal inhibitory concentration(MIC), C. parapsitosis A. 7330 [5] | Minimal inhibitory concentration(MIC), C. pseudotropicalis K. 11658 [6] | Minimal inhibitory concentration(MIC), C. tropicalis A. 13803 [7] | Minimal inhibitory concentration(MIC), Cry. neoformans A. 34144 [8] | Minimal inhibitory concentration(MIC), Cry. neoformans B. 42419 [9] | Minimal inhibitory concentration(MIC), Cry. neoformans IFM. 40092 [10] | Minimal inhibitory concentration(MIC), T. glabrata B. 16205 [11] | Minimal inhibitory concentration(MIC), T. mentagrophytes A. 9129 [12] | Minimal inhibitory concentration(MIC), T. mentagrophytes B. 32663 [13] | SMILES
5 | >100 µg/mL | >100 µg/mL | 25.0 µg/mL | 25.0 µg/mL | 1.56 µg/mL | >100 µg/mL | >100 µg/mL | >100 µg/mL | 100 µg/mL | 1.56 µg/mL | 3.13 µg/mL | 0.39 µg/mL | 50.0 µg/mL | 6.25 µg/mL | 3.13 µg/mL | Cc1cccc(C(=C(F)N2CCN(c3ccc(OCC4COC(Cn5ccnc5)(c5ccc(Cl)cc5Cl)O4)cc3)CC2)C(F)(F)F)c1 (mixture of isomers) [Ex. 125]
6 | >100 µg/mL | >100 µg/mL | >100 µg/mL | >100 µg/mL | 3.13 µg/mL | 3.13 µg/mL | 3.13 µg/mL | 1.56 µg/mL | >100 µg/mL | 0.78 µg/mL | 0.78 µg/mL | 0.39 µg/mL | >100 µg/mL | 12.5 µg/mL | 3.13 µg/mL | Cc1ccc(C(=C(F)N2CCN(c3ccc(OCC4COC(Cn5ccnc5)(c5ccc(Cl)cc5Cl)O4)cc3)CC2)C(F)(F)F)cc1C (mixture of isomers) [Ex. 129]
7 | >100 µg/mL | >100 µg/mL | >100 µg/mL | >100 µg/mL | 1.56 µg/mL | 1.56 µg/mL | 3.13 µg/mL | 1.56 µg/mL | >100 µg/mL | 0.39 µg/mL | 0.78 µg/mL | 0.20 µg/mL | >100 µg/mL | 6.25 µg/mL | 1.56 µg/mL | COc1ccc(C(=C(F)N2CCN(c3ccc(OCC4COC(Cn5ccnc5)(c5ccc(Cl)cc5Cl)O4)cc3)CC2)C(F)(F)F)cc1 (mixture of isomers) [Ex. 131]
8 | >100 µg/mL | >100 µg/mL | >100 µg/mL | >100 µg/mL | 1.56 µg/mL | 1.56 µg/mL | 1.56 µg/mL | 1.56 µg/mL | >100 µg/mL | 0.78 µg/mL | 0.78 µg/mL | 0.20 µg/mL | >100 µg/mL | 6.25 µg/mL | 1.56 µg/mL | FC(=C(c1ccc2c(c1)OCO2)C(F)(F)F)N1CCN(c2ccc(OCC3COC(Cn4ccnc4)(c4ccc(Cl)cc4Cl)O3)cc2)CC1 (mixture of isomers) [Ex. 132]
